# Experimental data taken from patent US20070122802A1, “Methods of diagnosing and treating diabetes and insulin resistance” (priority 2002, published 2007).
# Tests used:
# Format in all cases: in vivo, human
# Endothelin A receptor = assay: Gene expression profiling (Affymetrix chips) of muscle from diabetics before/after troglitazone: Endothelin A receptor transcripts; details: Endothelin A receptor mRNA, Clamp sample
# Text: (§1) The molecular mechanism by which thiazolidinediones (TZDs) cause an increase in peripheral insulin sensitivity was studied. Genes in muscle or fat whose expression is altered by TZDs may lie on a pathway leading from TZD treatment to increased insulin sensitivity. Modulators of such genes can elicit the same effect as TZD treatment. Moreover, such modulators can lack some of the side effects of TZD. The majority of glucose disposal occurs in muscle. For this reason, gene expression profiling in human muscle from diabetics treated with troglitazone was used to identify genes important for TZD action and therefore treatment of diabetes and insulin resistance. […]
# (§2) In the second study, samples were obtained from lean, obese, and diabetic individuals before and after a hyperinsulinemic euglycemic clamp. […] The gene expression profile for each individual was determined by hybridization of cRNA to custom synthesized Affymetrix chips.
# (§3) Gene expression profile differences were calculated as follows. […] The raw data was analyzed by a statistical test to remove ‘outliers’. The mean ‘average difference score’ was then calculated from the average difference scores for all individuals in a particular treatment group. Genes were determined to be changed in three different comparisons by calculating the Students t test statistic between two conditions and selecting those with t less than or equal to 0.05. […]
# PRK1 = assay: Gene expression profiling (Affymetrix chips) of muscle from diabetics before/after troglitazone: PRK1 transcripts; details: PRK1 mRNA, Basal sample
# Text: as §1, §2, §3
# Ceramidase = assay: Gene expression profiling (Affymetrix chips) of muscle from diabetics before/after troglitazone: ceramidase transcripts; details: Ceramidase mRNA, Clamp sample
# Text: as §1, §2, §3
# HIOMT = assay: Gene expression profiling (Affymetrix chips) of muscle from diabetics before/after troglitazone: HIOMT transcripts; details: HIOMT mRNA, Basal sample
# Text: as §1, §2, §3
# [1] = 3 months of Troglitazone treatment
smiles,measurement,setting,value
"Cc1c(C)c2c(c(C)c1O)CCC(C)(COc1ccc(CC3SC(=O)NC3=O)cc1)O2 (centres unmarked) [Troglitazone, troglitazone]",Fold Change (diabetic post tro/diabetic pre tro),Endothelin A receptor; [1],0.52
same,Diabetic Post-Trog Mean Expr,Endothelin A receptor; diabetic patients after 3 months of Troglitazone treatment (pre-Trog mean 194),102
same,Fold Change (diabetic post tro/diabetic pre tro),PRK1; [1],0.54
same,Diabetic Post-Trog Mean Expr,PRK1; diabetic patients after 3 months of Troglitazone treatment (pre-Trog mean 1634),874
same,Fold Change (diabetic post tro/diabetic pre tro),Ceramidase; [1],0.68
same,Diabetic Post-Trog Mean Exp,Ceramidase; diabetic patients after 3 months of Troglitazone treatment (pre-Trog mean 630),427
same,Fold Change (diabetic post tro/diabetic pre tro),HIOMT; [1],1.51
same,Diabetic Post-Trog Mean Expr,HIOMT; diabetic patients after 3 months of Troglitazone treatment (pre-Trog mean 518),781
